Tested on: strain GDH18 of Candida Albicans
Experiment: Antibacterial-property test on hemocytometer cover glass test pieces (colour change of agar), Example 3
Type: cell-based
Procedure: A hemocytometer cover glass was used as a test piece of an article on which an antibacterial agent is fixed. A strain GDH18 of Candida Albicans was used as the bacteria for use in the antibacterial-property test. The bacteria was incubated on Sabouraud agar for 18 hours and a bacteria solution having bacteria concentration of 1×10^6 cells/mL was prepared using ultra pure water (MQ water). The test pieces were immersed for 1 minute in approximately 30 mL of ozone water (0.4 to 0.6 ppm) produced by using ultra pure water and “Ozone Dash” manufactured by Ozone Total System Co., Ltd. The test pieces were then drained on a filtering paper and immersed for 5 minutes in following aqueous solutions, respectively: Each test piece was then taken out of the aqueous solution, immediately washed with water such that excess antibacterial composition was removed, whereby test pieces for the antibacterial-property test were obtained. […] Each test piece was left for 2 hours at the room temperature to wait for sedimentation of the bacteria. Thereafter, 5 mL of Sabouraud agar containing chlorophenol red as a pH indicator (Candida yellow agar, manufactured by Fuji Pharma Co., Ltd.) was added to each test piece and the respective test pieces were continually incubated at 37° C. […] Antibacterial property was evaluated using such change in color as described above of the agar as an index.

Compound: CCCCCCCCCCCCCCCCCC[N+](C)(C)CCC[Si](OCC)(OCC)OCC.[Cl-] [EtAC, octadecyldimethyl(3-triethoxysilylpropyl)ammonium chloride]
- antibacterial performance (control without ozone water treatment, EtAC treatment 5 minutes): hardly exhibited antibacterial performance
- color of the agar (upper control: immersed in MQ water (no ozone water), then 70% ethanol solution of EtAC 5 minutes, 45 hours): strongly yellow
- number of bacteria cells (upper control: immersed in MQ water (no ozone water), then 70% ethanol solution of EtAC 5 minutes, 45 hours, from agar colour): ≥ 5e+07 mL⁻¹
